{"source": "paper PMC4666646", "about": "“The Structure of the RNA-Dependent RNA Polymerase of a Permutotetravirus Suggests a Link between Primer-Dependent and Primer-Independent Polymerases” (PLoS Pathogens, 2015)", "key": {"TaVpol (TaV RdRP domain) [1]": {"molecular_target": "T1, TaVpol (TaV RdRP domain) (Thosea asigna virus, UniProt Q6A562)", "conditions": "MnCl2, ssRNA template 5'-[…]; active site of molecule B, base stacked on Y611 and F613 of loop λ6"}, "TaVpol (TaV RdRP domain) [2]": {"molecular_target": "T1, TaVpol (TaV RdRP domain)", "experiment": "X-ray crystal structure, […] Å", "format": "binding", "design": "RdRP domain, first 674 residues of replicase ORF1 (1257 residues), 75 kDa fragment released by proteolysis in Hi5 insect cells; N-terminal 6xHis tag and TEV site, tag cut for biochemical assays; dimer", "conditions": "MgCl2; triphosphate in rNTP tunnel (nucleoside disordered); second site in thumb subdomain (M556, T560, D563, E601)"}, "TaVpol (TaV RdRP domain) [3]": {"molecular_target": "T1, TaVpol (TaV RdRP domain)", "experiment": "X-ray crystal structure, […] Å", "format": "binding", "design": "RdRP domain, first 674 residues of replicase ORF1 (1257 residues), 75 kDa fragment released by proteolysis in Hi5 insect cells; N-terminal 6xHis tag and TEV site, tag cut for biochemical assays; dimer", "conditions": "MgCl2; triphosphate in rNTP tunnel (nucleoside disordered); second site in thumb subdomain (M556, T560, D563, E601)", "remark": "listed apart in the source"}, "[4]": {"molecular_target": "TaVpol (RdRP domain of Thosea asigna virus ORF1, first 674 residues) (Thosea asigna virus)", "experiment": "SEC; analytic chromatography on a calibrated Superdex 200 5/150 column of purified proteins; for TaVpol also the final purification step on Superdex 200 HR 10/300 (50 mM MES pH 6.0, 500 mM NaCl, 10% glycerol, 5 mM DTT)"}, "[5]": {"molecular_target": "T2, TaVpol (RdRP-containing N-terminal fragment of ORF1) (Thosea asigna virus, UniProt Q6A562 1-674)", "experiment": "X-ray crystallography; ATP, CTP, 5 mM MnCl2; 3.5 A; RNA density weak, only phosphate peaks in template channel, RNA not built; Complex formation: 1 mg/ml TaVpol, 1:1.5 protein:RNA, 50 mM MES pH 6.0, 200 mM NaCl, 10% glycerol, 5 mM DTT, 30 C 30 min; crystals at 20 C in 12% PEG 8K, 750 mM Li2SO4", "conditions": "protein: recombinant; tags: N-terminal 6xHis with TEV site (tag not removed for RNA complexes as far as stated); chain copies: 2; single strand"}, "[6]": {"molecular_target": "T2, TaVpol (RdRP-containing N-terminal …)", "experiment": "X-ray crystallography; Complex formation: 1 mg/ml TaVpol, 1:1.5 protein:RNA, 50 mM MES pH 6.0, 200 mM NaCl, 10% glycerol, 5 mM DTT, 30 C 30 min; crystals at 20 C in 12% PEG 8K, 750 mM Li2SO4", "conditions": "protein: recombinant; tags: N-terminal 6xHis with TEV site (tag not removed for RNA complexes as far as stated); chain copies: 2; single strand"}}, "data": [{"molecule": "Nc1ncnc2c1ncn2[C@@H]1O[C@H](COP(=O)(O)OP(=O)(O)OP(=O)(O)O)[C@@H](O)[C@H]1O", "note": "[ATP]", "values": [{"measurement": "X-ray crystal structure, 3.5 Å", "setting": "TaVpol (TaV RdRP domain) [1]", "value": "This density, was interpreted as the presence of a bound ATP molecule"}]}, {"molecule": "Nc1ccn([C@@H]2O[C@H](COP(=O)(O)OP(=O)(O)OP(=O)(O)O)[C@@H](O)[C@H]2O)c(=O)n1", "note": "[CTP]", "values": [{"measurement": "X-ray crystal structure, 2.25 Å", "setting": "TaVpol (TaV RdRP domain) [2]", "value": "TaVpol-GTP and TaVpol-CTP co-crystals were also obtained in presence of MgCl2"}]}, {"molecule": "Nc1nc2c(ncn2[C@@H]2O[C@H](COP(=O)(O)OP(=O)(O)OP(=O)(O)O)[C@@H](O)[C@H]2O)c(=O)[nH]1", "note": "[GTP]", "values": [{"measurement": "X-ray crystal structure, 2.3 Å", "setting": "TaVpol (TaV RdRP domain) [3]", "value": "TaVpol-GTP and TaVpol-CTP co-crystals were also obtained in presence of MgCl2"}]}, {"molecule": "TaVpol (RdRP domain of Thosea asigna virus ORF1, first 674 residues) (domain or fragment)", "values": [{"measurement": "stoichiometry N", "setting": "[4]", "value": 2}]}, {"molecule": "CCCAUUCGACUCCUG (ssRNA)", "note": "[15-nt ssRNA template]", "values": [{"measurement": "binding result", "setting": "[5]", "value": "binds"}]}, {"molecule": "GUAUACUACACCCAUUCGACUCCUG (ssRNA)", "note": "[25-nt ssRNA template]", "values": [{"measurement": "binding result", "setting": "[6]", "value": "binds"}]}]}
